Columns and labels:
HCT116p53+ = assay: In vitro cell proliferation assay, continuous drug exposure; assay type: cell-based; conditions: Homo sapiens, continuous drug exposure 3-5 days
Description: (§1) The results with the JLA and JLD lines, which have reduced topoisomerase II content as compared to the parental Jurkat line, indicate that the IC50 value of the compound is increased with decreased topoisomerase content. This is also the case for etoposide, amsacrine, DACA and doxorubicin.

HCT116p53− = assay: as above; assay type: cell-based; conditions: Homo sapiens, continuous drug exposure 3-5 days
Description: as §1

JLA = assay: as above; assay type: cell-based; conditions: Homo sapiens; JLA (reduced topoisomerase II), continuous drug exposure 3-5 days
Description: as §1

JLD = assay: as above; assay type: cell-based; conditions: Homo sapiens; JLD (reduced topoisomerase II), continuous drug exposure 3-5 days
Description: as §1

Jurkat = assay: as above; assay type: cell-based; conditions: Homo sapiens, continuous drug exposure 3-5 days
Description: as §1

AuxB1 = assay: In vitro susceptibility to multidrug resistance, continuous exposure IC50; assay type: cell-based, Chinese Hamster; conditions: Cricetulus griseus, AuxB1 (no multidrug resistance)
Experimental: (§2) Multidrug resistance mediated by p-glycoprotein and related transport proteins is an important means by which cancer cells evade cytotoxic drugs. […] IC50 values of several drugs were measured in continuous exposure assays in these two cell lines. The resistance factor was calculated as the ratio of these values. High values indicate high susceptibility to resistance.

CHrC5 = assay: as above; assay type: cell-based, Chinese Hamster; conditions: for IC50: Cricetulus griseus, CHrC5 (multidrug resistant), continuous exposure; for Resistance factor: ratio of IC50 values in CHrC5 and AuxB1
Experimental: as §2

[1] = tested on: p53, p21 and Fas in HCT116 (TP53 wild type); assay: Induction of the p53 pathway, western blotting; assay type: cell-based, human
Description: The p53 protein is thought to play a major role in the induction of apoptosis in tumour cells (Levine A J. p53, the cellular gatekeeper for growth and division. Cell. 1997. 88(3):323-331). The p53 protein is a transcriptional activator, which acts in response to DNA damage and other stress pathways, and increases expression of proteins such as Fas and p21^WAF1. […] Products were detected by western blotting.

[2] = tested on: survivin in HCT116 (TP53 wild type); assay: Inhibition of survivin production, western blotting; assay type: cell-based, human; conditions: various concentrations, 24 hours
Experimental: Survivin is a protein that is expressed selectively in many types of cancer cells and which is known to be associated with resistance to apoptosis (Zaffaroni N and Daidone M G. Survivin expression and resistance to anticancer treatments: perspectives for new therapeutic interventions. Drug Resistance Updates: Reviews and Commentaries in Antimicrobial and Anticancer Chemotherapy. 2002 5(2):65-72). […] Extracts were prepared, proteins were separated by electrophoresis and survivin expression was determined by western blotting.

Jurkat LA = assay: Human tumour xenograft; assay type: in vivo; conditions: Leukaemia, comparison drug
Experimental: (§3) The compound of Formula II was evaluated in a number of xenografts using cell lines derived from cervical, endometrial, lung and colon carcinomas, leukaemia and melanoma (Table 3). These studies indicate that the compound according to the present invention has significant activity in xenografts.

NZEN1 = assay: Human tumour xenograft; assay type: in vivo; conditions: NZEN1, Endometrium; comparison drug
Experimental: as §3

[3] = data taken from the literature; cited from earlier work
NZC1 = assay: Human tumour xenograft; assay type: in vivo; conditions: NZC1, Cervix; comparison drug
Experimental: as §3

NZM10 = assay: Human tumour xenograft; assay type: in vivo; conditions: NZM10, Melanoma; comparison drug
Experimental: as §3

NZM3 = assay: Human tumour xenograft; assay type: in vivo; conditions: NZM3, Melanoma; comparison drug
Experimental: as §3

NZM4 = assay: Human tumour xenograft; assay type: in vivo; conditions: NZM4, Melanoma; comparison drug
Experimental: as §3

NZMp2 = assay: Human tumour xenograft; assay type: in vivo; conditions: NZMp2, Melanoma; comparison drug
Experimental: as §3

Structure (SMILES) | IC50 (HCT116p53+) | IC50 (HCT116p53−) | IC50 (JLA) | IC50 (JLD) | IC50 (Jurkat) | IC50 (AuxB1) | IC50 (CHrC5) | Resistance factor (CHrC5) | induction of p53, p21 and Fas ([1]; 24 hours at higher cell density (approaching confluence)) | induction of p53, p21 and Fas ([1]; 24 hours exposure) | induction of p53, p21 and Fas ([1]; earlier times (4-10 hours)) | survivin expression [2] | Comparison (Jurkat LA) | Comparison (NZEN1) | accumulation in tumour tissue versus liver tissue and plasma [3] | Comparison (NZC1) | Comparison (NZM10) | Comparison (NZM3) | Comparison (NZM4) | Comparison (NZMp2)
COc1cccc2c1C(=O)c1c(O)c3c(c(O)c1C2=O)C[C@@](O)(C(=O)CO)C[C@@H]3O[C@H]1C[C@H](N)[C@H](O)[C@H](C)O1 [Doxorubicin] | 10.5 nM | 21 nM | 42 nM | 270 nM | 9.6 nM | 53 nM | 6100 nM | 114 | did not | induced p53, p21 and Fas in dose-dependent fashions | did not | only small effects | inactive | inactive |  |  |  |  |  | 
COc1cc(NS(C)(=O)=O)ccc1Nc1c2ccccc2nc2ccccc12 [Amsacrine] | 25 nM | 52 nM | 3100 nM | 2700 nM | 37 nM | 19 nM | 110 nM | 5.6 |  |  |  |  |  |  | accumulate more in the liver tissue than tumour tissue |  |  |  |  | 
CNC(=O)c1cccc2c(Nc3ccc(NS(C)(=O)=O)cc3OC)c3cccc(C)c3nc12 [asulacrine, 9-((2-methoxy-4-[(methylsulfonyl)-amino]phenyl)amino)-N,5-dimethyl-4-acridinecarboxamide] |  |  |  |  |  |  |  |  |  |  |  |  |  |  | accumulate more in the liver tissue than tumour tissue |  |  |  |  | 
COc1cc([C@@H]2c3cc4c(cc3[C@@H](O[C@@H]3O[C@@H]5CO[C@@H](C)O[C@H]5[C@H](O)[C@H]3O)[C@H]3COC(=O)[C@H]23)OCO4)cc(OC)c1O [Etoposide] | 210 nM | 390 nM | 2080 nM | 14400 nM | 160 nM | 1190 nM | 8600 nM | 7.2 |  |  |  | only small effects |  |  |  | active | active | active | active | active
CN(C)CCNC(=O)c1cccc2cc3ccccc3nc12.Cl.Cl [DACA, N-[2-(dimethylamino)ethyl]acridine-4-carboxamide dihydrochloride] | 360 nM | 510 nM | 1100 nM | 2500 nM | 580 nM | 125 nM | 216 nM | 1.6 |  |  |  |  |  |  | relatively evenly spread throughout each tissue and plasma |  |  |  |  | 

Reference: patent US20080248134A1, “Oral compositions, use and combinations of N-[2-(dimethylamino)ethyl]-2,6 dimethyl-1-oxo-1,2-dihydrobenzo[b]-1,6-naphthyridine-4-carboxamide and closely related analogues thereof” (Auckland Uniservices Limited, priority 2005, published 2008)
